Publication PMC7866885 (PeerJ, 2021)

Tests used:
Test in all cases: DHFR activity, NADPH consumption at […] nm
Type in all cases: biochemical
[1] = target: T1, S. suis dihydrofolate reductase (SsDHFR) (Streptococcus suis, UniProt A0A0H3N4C4)
T1 construct: gene dyr; full-length dhfr in pET15b (NdeI/BamHI, N-terminal vector tag kept); clarified lysate of E. coli BL21(DE3), not purified
T1 sequence (A0A0H3N4C4 1-170): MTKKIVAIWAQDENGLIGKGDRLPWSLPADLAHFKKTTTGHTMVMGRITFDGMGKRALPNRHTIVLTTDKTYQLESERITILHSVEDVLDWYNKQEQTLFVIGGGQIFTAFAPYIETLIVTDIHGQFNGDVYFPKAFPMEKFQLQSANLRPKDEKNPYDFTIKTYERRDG

[2] = target: T1, S. suis dihydrofolate reductase (SsDHFR); conditions: 0.1 mM dihydrofolate, 0.1 mM NADPH, 50 mM TES pH 7.0; lysate
[3] = target: T1, S. suis dihydrofolate reductase (SsDHFR); conditions: 1 µM inhibitor; 0.1 mM dihydrofolate, 0.1 mM NADPH, 50 mM TES pH 7.0; lysate of overexpressing E. coli BL21(DE3), host DHFR background present

| Compound | % activity at 1 μM [3] | other results |
| --- | --- | --- |
| COc1ccc(OC)c(NCc2ccc3nc(N)nc(N)c3c2Cl)c1 [MMV675968] |  | remaining activity at 1 µM [1]: 2% |
| NC(=O)C1=CN([C@@H]2O[C@H](COP(=O)(O)OP(=O)(O)OC[C@H]3O[C@@H](n4cnc5c(N)ncnc54)[C@H](OP(=O)(O)O)[C@@H]3O)[C@@H](O)[C@H]2O)C=CC1 [NADPH] |  | DHFR activity, NADPH consumption at 340 nm [2]: DHFR uses NADPH as a cofactor for the conversion of dihydrofolate (DHF) to tetrahydrofolate (THF) |
| CC1(C)N=C(N)N=C(N)N1c1ccc(Cl)cc1 [cycloguanil] | Trimethoprim, pyrimethamine, and cycloguanil were moderately effective at inhibiting SsDHFR |  |
| CCc1nc(N)nc(N)c1-c1ccc(Cl)cc1 [pyrimethamine] | Trimethoprim, pyrimethamine, and cycloguanil were moderately effective at inhibiting SsDHFR |  |
